Test results published in patent US6465168B1, “Methods and apparatus for the inactivation of viruses” (priority 1992, dated 2002).
Like-named read-outs stand apart in the source and are kept apart here. Marks after values point to notes of the source that are not given here.

Legend:
[1] = tested on: murine C-type retrovirus; type: cell-based; conditions: culture medium; for Titer: control 5,000; for effectiveness in inactivating the retrovirus: supercritical fluid, approximately 3,000 psig and 40° C.
Source text: (§1) In its normal operating mode, valves PV-4 and PV-5 are opened and an aliquot of test solution is aseptically introduced through the 3-way valve PV-4 using a sterile syringe and a presterilized loading tube. The 3-way valve PV-4 is then turned so that the critical fluid recycle line communicates with the soaking chamber, and the vent valve PV-5 is closed. PV-1 is then opened, supplying the solvent to the compressor P-1. The compressor is turned on and immediately thereafter valves PV-2 and PV-3 are opened, introducing the critical fluid solvent into the high pressure circulation loop. When operating pressure is attained, the compressor is turned off and valve PV-3 is closed.
(§2) After system stabilization, the circulation pump P-2 is turned on and its speed adjusted, typically to 75% of maximum speed or 6,750 rpm. P-2 draws both the proteinaceous product from the bottom of the soaking chamber and the critical fluid phase from the top of the same unit. The mixture is then pumped counter-clockwise, mixed by static in-line mixer and returned to the soaking chamber. After mixing for a defined residence time, P-2 is turned off. The decompression valve PV-7 is then fully opened to depressurize the soaking chamber and the high pressure circulation loop. The rate of decompression was approximately 500 psig per second when PV-7 is a ¼″ ball valve. By using a back-pressure regulator instead of a ¼″ ball valve as the decompression valve PV-7, the rate of decompression can be controlled. In some experiments, the rate of decompression was controlled to approximately 2,000 psig per minute.
(§3) In the examples described herein, samples of a recombinant murine C-type retrovirus were prepared as follows. […] Clonal cell lines stably expressing the transfected DNA were derived and maintained as virus-producing stocks. By packaging the RNA produced by the transfected DNA into the defective particles, these cells produce infectious particles that are entirely normal with respect to overall structure, stability, and mode of infection, but containing the plasmid-derived rather that the wild type, genetic material (Mann et al., Ibid).
(§4) Because the LNCX sequences contain the antibiotic resistance gene neo and a suitable promoter, infection of cells with the recombinant retrovirus confers upon the cells resistance to the antibiotic Geneticin (G418). Conferral of Geneticin-resistance onto cells and their progeny was therefore used as the property by which virus titers were determined. Specifically, virus stocks were prepared by culturing the virus-producing cells at high density (50% confluence) in fresh culture medium (Dulebecco's modified Eagle's medium supplemented with 10% iron-supplemented calf serum [Hyclone, Inc., Logan, UT], glutamine [1 mM], penicillin [100 U/ml] and streptomycin [100 μg/ml] for 18 hours at 37 C. in a humidified 5% CO2 atmosphere. Culture medium was harvested and passed through a 0.2 micron filter, divided into aliquots, quick frozen using a dry-ice/ethanol bath and stored at −80° C. Immediately before use, samples were warmed in a 37 C. water bath until just thawed and held on ice. Aliquots of a single virus preparation were used for the examples described below.
(§5) After virus-containing samples were mixed with other materials and treated as described in each of the examples, they were returned to ice, and assayed within 8 hours. Titer tests were performed by seeding 35 mm-style culture dishes with a mouse fibroblast line (NIH3T3 cells) in 3 ml of the culture medium described above at a density of 10,000 cells per well the evening before the assay was to be performed. Virus samples were added to the culture medium over the cells at various dilution from 10^0 (undiluted) to 10^−6.

[2] = tested on: murine-C retrovirus; assay: Critical fluid viral inactivation of murine-C retrovirus in serum, polybrene enhanced titer on NIH3T3 cells; type: cell-based
Source text: as §1, §2, §3, §4, §5

[3] = run CFI-21: 3,250 psig, 41 C., 30 mins
[4] = runs CFI-33 (Fr-22), CFI-35 (N2): 3,000 psig, 41 C., 60 mins, serum
[5] = runs CFI-33 (Fr-22), CFI-35 (N2): 3,000 psig, 41 C., 60 mins, serum, control 20,000, 5 = detection limit
[6] = run CFI-18: 2,560 psig, 43 C., 30 mins
[7] = run CFI-19: 2,690 psig, 41 C., 5 mins
[8] = runs CFI-28 to CFI-30: 3,000 psig, 41 C., 30 mins, serum
[9] = runs CFI-28 to CFI-30: 3,000 psig, 41 C., 30 mins, serum, polybrene, control 65,000

N#N [N2, nitrogen]
- log10 Reduction [1, 3]: 0.2
Titer [1, 3]: 3,000 cfu/2.3 ml
effectiveness in inactivating the retrovirus [1]: relatively ineffective
- log10 Reduction [2, 4]: 0.7
Titer [2, 5]: 3,750 cfu/2.0 ml

[N-]=[N+]=O [N2O, nitrous oxide]
- log10 Reduction [1, 6]: 2.7
Titer [1, 6]: 10 cfu/2.3 ml
- log10 Reduction [1, 7]: 2.0
Titer [1, 7]: 50 cfu/2.3 ml
- log10 Reduction ([1]; run CFI-20: 3,180 psig, 41 C., 121 mins): >3.0
Titer ([1]; run CFI-20: 3,180 psig, 41 C., 121 mins, 5 = detection limit): <5* cfu/2.3 ml
effectiveness in inactivating the retrovirus [1]: very effective
reduction of virus activity ([2]; 3,000 psig and 40° C., residence time 30 minutes, serum (CFI-27)): 1.4 logs
inactivation of the viral population, within the detection limits of the assay ([2]; 5,000 psig and 40° C., residence time 30 minutes, serum (CFI-34)): inactivated the entire viral population
- log10 Reduction ([2]; run CFI-26: 3,000 psig, 60 C., 30 mins, serum): >4.1
Titer ([2]; run CFI-26: 3,000 psig, 60 C., 30 mins, serum, polybrene, 40 C. control 65,000, 5 = detection limit): <5* cfu/2.3 ml
- log10 Reduction ([2]; run CFI-27: 3,000 psig, 40 C., 30 mins, serum): 1.4
Titer ([2]; run CFI-27: 3,000 psig, 40 C., 30 mins, serum, polybrene, control 65,000): 3,000 cfu/2.3 ml
- log10 Reduction ([2]; run CFI-34: 5,000 psig, 41 C., 30 mins, serum): >3.6
Titer ([2]; run CFI-34: 5,000 psig, 41 C., 30 mins, serum, control 20,000, 5 = detection limit): <5* cfu/2.0 ml
reduction of effectiveness by the presence of protein ([2]; serum (CFI-27) compared with culture medium (CFI-18)): one to two orders of magnitude

FC(F)Cl [Fr-22, chlorodifluoromethane]
reduction of viral activity ([2]; after 30 minutes of contacting the serum, approximately 3,000 psig and 40° C.): ~3.2 log orders of magnitude
time to eliminate viral activity, within the detection limits of the assay ([2]; approximately 3,000 psig and 40° C., serum): within five minutes
- log10 Reduction ([2]; run CFI-31: 3,000 psig, 40 C., 5 mins, serum): >3.6
Titer ([2]; run CFI-31: 3,000 psig, 40 C., 5 mins, serum, control 20,000, 5 = detection limit): <5* cfu/2.0 ml
- log10 Reduction ([2]; run CFI-32: 3,000 psig, 40 C., 15 mins, serum): 3.6
Titer ([2]; run CFI-32: 3,000 psig, 40 C., 15 mins, serum, control 20,000): 5 cfu/2.0 ml
- log10 Reduction [2, 8]: 3.2
Titer [2, 9]: 40 cfu/2.3 ml
- log10 Reduction [2, 4]: >3.6
Titer [2, 5]: <5* cfu/2.0 ml

CCC [C3H8, propane]
- log10 Reduction [2, 8]: 1.4
Titer [2, 9]: 2,500 cfu/2.3 ml

CCO [ethanol]
impact on the effect of supercritical nitrous oxide ([2]; 2 mole % ethanol cosolvent, approximately 3,000 psig, 40° C., 30 minutes, serum): little or no impact
effect on the titer ([2]; control without critical fluid, 40° C., 2 mole % ethanol in the serum): does not affect the titer
